# Experiments:
# [1] = tested on: untreated, advanced, melanoma; details: 17 patients, treatment for a median of about 3 months; cited from earlier work
# CDK4 = CDK4 (Homo sapiens, UniProt P11802); details: Kubo et al. 1999; cited from earlier work
# [2] = tested on: 624Mel, WM35, A375, and Mel1363 cells; experiment: Preliminary chemotherapeutic treatment, daily cell counting and colony formation; format: cell-based; details: after 6-24 hr treatment, both concentrations
# [3] = tested on: mBRAF positive melanoma cells; details: mice, Collisson et al. 2003; cited from earlier work
# CDK4, sequence (P11802 whole entry, species assumed): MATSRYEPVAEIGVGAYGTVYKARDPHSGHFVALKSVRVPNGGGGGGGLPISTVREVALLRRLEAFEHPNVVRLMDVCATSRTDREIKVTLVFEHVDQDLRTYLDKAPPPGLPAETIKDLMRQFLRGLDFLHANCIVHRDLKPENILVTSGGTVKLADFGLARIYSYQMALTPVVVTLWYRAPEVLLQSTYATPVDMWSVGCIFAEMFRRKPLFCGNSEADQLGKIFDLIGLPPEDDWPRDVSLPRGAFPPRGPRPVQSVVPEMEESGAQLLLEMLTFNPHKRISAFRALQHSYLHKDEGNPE
# CDK4, sequence (P24385 whole entry partner, species assumed): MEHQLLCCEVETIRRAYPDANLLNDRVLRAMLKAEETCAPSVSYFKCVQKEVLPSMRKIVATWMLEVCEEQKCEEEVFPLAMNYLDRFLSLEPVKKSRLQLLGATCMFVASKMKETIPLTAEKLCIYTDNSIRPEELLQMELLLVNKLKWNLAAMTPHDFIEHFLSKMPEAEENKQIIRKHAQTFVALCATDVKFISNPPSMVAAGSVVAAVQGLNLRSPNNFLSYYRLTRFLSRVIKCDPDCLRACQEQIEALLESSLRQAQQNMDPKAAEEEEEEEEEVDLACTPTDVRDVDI
compound,measurement,setting,value
CN1CC[C@H](c2c(O)cc(O)c3c(=O)cc(-c4ccccc4Cl)oc23)[C@H](O)C1 [flavopiridol],clinical response,[1],no response
same,"inhibition of CDK4 activity, rank among the compounds",CDK4,most potent inhibitor
CC(=O)O[C@H]1C(=O)[C@@]2(C)[C@H]([C@H](OC(=O)c3ccccc3)[C@]3(O)C[C@H](OC(=O)[C@H](O)[C@@H](NC(=O)c4ccccc4)c4ccccc4)C(C)=C1C3(C)C)[C@]1(OC(C)=O)CO[C@@H]1C[C@@H]2O [taxol],growth inhibition,[2],Growth inhibition was observed
N.N.[Cl][Pt][Cl] [cisplatin],growth inhibition,[2],Growth inhibition was observed
O=C(NOCC1CC1)c1ccc(F)c(F)c1Nc1ccc(I)cc1Cl [CI 1040],pulmonary metastases,[3],suppressed

# Reference: patent US20060134068A1, “Treatment of cancer by simultaneous inhibiton of BRAF and restoration or mimicry of p16INK4A activity” (Mount Sinai School of Medicine of New York University, priority 2004, published 2006)
